Results published in US20260207614A1, “IRAK4 DEGRADERS AND USES THEREOF” (Kymera Therapeutics, Inc., priority 2022, published 2026).
Read-outs that look alike come from different tables or passages of the source.

Assays:
[1] = molecular target: CYP2C19 (Homo sapiens, UniProt P33261); assay: In vitro drug-drug interaction study, CYP2C19; format: in vitro ADME
From the text: (§1) Metabolites generated in liver microsomes from humans were also detected in those from rat, dog, and monkey. In the in vitro drug-drug interaction studies.

[2] = tested on: R848 (TLR7)-stimulated cytokine induction in whole blood; assay: Phase 1 SAD ex vivo R848-stimulated cytokine induction in whole blood; parameters: species or system human
[3] = Plasma protein binding and red blood cell partitioning; format: in vitro ADME, nonclinical species and humans
[4] = Distribution studies in rats; format: in vivo
From the text: (§2) In in vivo pharmacokinetic (PK) studies conducted in rats, dogs, and monkeys.

[5] = Phase 1 MAD safety; format: in vivo, human; conditions: multiple daily doses over 14 days up to 200 mg (MAD 4)
From the text: Steady-state plasma levels were reached by Day 7, with approximately 3-fold increase in exposure on Day 14 compared to Day 1.

[6] = tested on: patients with hidradenitis suppurativa (HS); assay: Phase 1 Part C clinical efficacy in hidradenitis suppurativa; format: in vivo, human; conditions: for ΔAN Count / ΔPain NRS / ΔPeak Pruritis NRS / Responders: AN Count 0/1/2 / Responders: HiSCR50 / Responders: HiSCR75 / Responders: Pain NRS30: HS; for ΔAN Count: deepest reduction across Days 28 through 42; for ΔPain NRS / ΔPeak Pruritis NRS: deepest reduction, past week; for Responders: AN Count 0/1/2 / Responders: HiSCR50 / Responders: HiSCR75 / Responders: Pain NRS30: highest response across Days 28 through 42
From the text: Baseline Characteristics and Disposition: A total of 21 patients were enrolled in the trial, including 13 HS and 8 AD patients, with median age 31-40 years (13 female, 8 male). Disease severity for HS was moderate (10), severe (1) and very severe (2) and for AD was mild (1), moderate (5) and severe (2). One HS and 1 AD patient withdrew from treatment early due to personal reasons, resulting in 12 HS and 7 AD patients evaluable for PD and clinical efficacy.
HS clinical endpoints collected in the study included AN count, Pain NRS. Pruritus NRS and HS-PGA. […] Analyses were done for all patients, including very severe (n=12), and for patients with only moderate to severe disease (n=10).

[7] = molecular target: CYP3A4 (Homo sapiens, UniProt P08684); assay: In vitro drug-drug interaction and metabolism studies, CYP3A4; format: in vitro ADME
From the text: as §1

[8] = molecular target: T1, IRAK4 (Canis lupus familiaris, UniProt A0A8I3S726); assay: In vitro IRAK4 degradation, dog PBMCs; format: cell-based; conditions: read-out: DC50 (IRAK4 degradation)
T1 construct: endogenous in cells; host or cells: dog PBMCs
T1 sequence (A0A8I3S726 1-460): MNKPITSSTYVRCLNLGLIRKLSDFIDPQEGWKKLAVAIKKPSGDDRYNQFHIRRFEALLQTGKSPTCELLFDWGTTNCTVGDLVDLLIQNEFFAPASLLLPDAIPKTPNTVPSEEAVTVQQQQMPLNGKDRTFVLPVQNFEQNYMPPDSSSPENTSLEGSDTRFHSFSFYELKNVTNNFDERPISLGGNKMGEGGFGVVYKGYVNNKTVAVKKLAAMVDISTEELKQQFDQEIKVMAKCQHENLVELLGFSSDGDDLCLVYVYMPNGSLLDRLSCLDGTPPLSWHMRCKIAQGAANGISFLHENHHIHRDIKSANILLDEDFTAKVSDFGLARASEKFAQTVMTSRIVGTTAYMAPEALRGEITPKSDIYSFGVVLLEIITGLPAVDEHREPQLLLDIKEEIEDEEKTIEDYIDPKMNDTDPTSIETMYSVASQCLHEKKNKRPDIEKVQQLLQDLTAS

[9] = Phase 1 Part C plasma PK in HS/AD patients; format: in vivo; conditions: human
From the text: Part C: Part C is an open-label, multiple dose study in a single cohort of up to 20 patients with AD or HS (at least 10 patients with AD) and will commence after the completion of Part B. Part C will be conducted on both an inpatient and outpatient basis and patients will continue to be followed for safety through Day 28. The dose regimen and the requirement for patient confinement to the clinical units will be selected by the SRC from review of the safety. PK, and PD data after completion of Part B.

[10] = Solubility; format: physicochemical
From the text: Compound A can be classified tentatively as a BCS II compound.

[11] = Excretion study in bile duct-cannulated (BDC) rats; format: in vivo
[12] = tested on: TLR agonist (lipopolysaccharide and R848) and IL-1β-induced proinflammatory cytokine production; assay: In vitro cytokine release assays in PBMCs; format: cell-based; conditions: LPS
[13] = molecular target: P-glycoprotein (P-gp) (Homo sapiens, UniProt P08183); assay: P-gp substrate assessment in vitro; format: in vitro ADME
From the text: as §2, §1

[14] = Phase 1 MAD Compound A concentration in skin; format: in vivo; conditions: human, oral, Day 14, once daily dosing, read-out: Ctrough (pre-dose) levels in skin relative to plasma
[15] = R848, whole blood, 24-48 hours, Cohort 7

CYP3A4, sequence (P08684 whole entry): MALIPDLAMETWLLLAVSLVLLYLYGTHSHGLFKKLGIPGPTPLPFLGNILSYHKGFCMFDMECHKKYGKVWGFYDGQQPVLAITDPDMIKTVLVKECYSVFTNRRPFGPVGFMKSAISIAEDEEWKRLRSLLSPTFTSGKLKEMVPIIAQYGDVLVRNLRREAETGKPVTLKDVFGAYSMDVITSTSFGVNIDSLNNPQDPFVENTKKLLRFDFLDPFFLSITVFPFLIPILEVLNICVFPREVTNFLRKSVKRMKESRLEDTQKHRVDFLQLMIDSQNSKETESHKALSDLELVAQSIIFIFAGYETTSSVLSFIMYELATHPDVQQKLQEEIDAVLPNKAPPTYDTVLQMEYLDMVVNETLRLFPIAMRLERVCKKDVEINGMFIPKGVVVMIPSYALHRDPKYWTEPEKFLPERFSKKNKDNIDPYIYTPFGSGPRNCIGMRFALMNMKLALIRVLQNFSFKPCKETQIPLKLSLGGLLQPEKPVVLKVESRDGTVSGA
P-glycoprotein (P-gp), sequence (P08183 whole entry): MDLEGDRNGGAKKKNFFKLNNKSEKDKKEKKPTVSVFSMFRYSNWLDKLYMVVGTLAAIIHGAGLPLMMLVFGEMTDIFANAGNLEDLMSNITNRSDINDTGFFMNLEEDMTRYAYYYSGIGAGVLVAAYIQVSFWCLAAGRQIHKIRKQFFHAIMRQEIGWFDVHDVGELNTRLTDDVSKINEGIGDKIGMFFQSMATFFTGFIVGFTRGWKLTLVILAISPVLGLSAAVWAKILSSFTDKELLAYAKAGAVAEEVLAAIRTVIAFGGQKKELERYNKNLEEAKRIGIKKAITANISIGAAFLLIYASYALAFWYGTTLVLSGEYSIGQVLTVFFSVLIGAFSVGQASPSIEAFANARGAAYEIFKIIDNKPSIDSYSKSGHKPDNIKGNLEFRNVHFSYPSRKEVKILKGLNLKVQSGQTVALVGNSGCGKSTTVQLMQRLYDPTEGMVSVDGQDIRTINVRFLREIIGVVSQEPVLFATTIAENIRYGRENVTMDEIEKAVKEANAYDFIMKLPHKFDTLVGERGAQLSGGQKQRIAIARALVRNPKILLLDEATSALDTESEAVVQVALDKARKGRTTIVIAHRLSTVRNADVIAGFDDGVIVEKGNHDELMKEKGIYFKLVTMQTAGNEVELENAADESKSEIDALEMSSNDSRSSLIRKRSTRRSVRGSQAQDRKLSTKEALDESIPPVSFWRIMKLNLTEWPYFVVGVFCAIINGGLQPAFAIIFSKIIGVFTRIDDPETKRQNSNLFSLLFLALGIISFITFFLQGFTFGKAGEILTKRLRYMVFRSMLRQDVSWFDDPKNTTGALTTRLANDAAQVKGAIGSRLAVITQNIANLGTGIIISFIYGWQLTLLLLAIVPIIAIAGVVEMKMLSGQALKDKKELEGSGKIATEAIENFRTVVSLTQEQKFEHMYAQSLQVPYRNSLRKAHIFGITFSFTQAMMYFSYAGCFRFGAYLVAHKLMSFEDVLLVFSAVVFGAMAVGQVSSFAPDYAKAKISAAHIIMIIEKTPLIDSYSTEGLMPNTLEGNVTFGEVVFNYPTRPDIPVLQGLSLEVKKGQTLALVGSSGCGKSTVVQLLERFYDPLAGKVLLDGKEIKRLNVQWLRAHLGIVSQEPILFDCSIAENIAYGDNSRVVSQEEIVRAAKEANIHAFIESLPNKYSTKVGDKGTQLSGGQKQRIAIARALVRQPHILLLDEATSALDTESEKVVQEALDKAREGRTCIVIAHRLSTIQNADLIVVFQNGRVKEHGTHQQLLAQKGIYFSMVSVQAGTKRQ
CYP2C19, sequence (P33261 whole entry): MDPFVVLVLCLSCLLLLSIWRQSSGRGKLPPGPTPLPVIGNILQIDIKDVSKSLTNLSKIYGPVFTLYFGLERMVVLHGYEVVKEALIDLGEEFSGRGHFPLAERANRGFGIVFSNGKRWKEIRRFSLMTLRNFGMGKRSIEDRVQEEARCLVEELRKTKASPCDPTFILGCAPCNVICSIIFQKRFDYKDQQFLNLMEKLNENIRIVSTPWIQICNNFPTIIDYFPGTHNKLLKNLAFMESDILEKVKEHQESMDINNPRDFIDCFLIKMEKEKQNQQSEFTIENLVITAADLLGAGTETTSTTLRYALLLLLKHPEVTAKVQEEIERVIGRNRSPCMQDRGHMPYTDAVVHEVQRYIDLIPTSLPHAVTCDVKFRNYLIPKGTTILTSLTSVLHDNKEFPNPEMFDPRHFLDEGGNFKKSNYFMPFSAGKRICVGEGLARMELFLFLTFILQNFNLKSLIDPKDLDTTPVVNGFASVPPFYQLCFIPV

Cn1c(=O)n([C@@H]2CCC(=O)NC2=O)c2cccc(C#CCOC3CCN(C[C@H]4CC[C@H](n5cc(NC(=O)c6cnn7ccc(N8C[C@H]9C[C@@H]8CO9)nc67)c(C(F)F)n5)CC4)CC3)c21 [Compound A, 5-((1R,4R)-2-oxa-5-azabicyclo[2.2.1]heptan-5-yl)-N-(3-(difluoromethyl)-1-((1r,4R)-4-((4-((3-(1-(2,6-dioxopiperidin-3-yl)-3-methyl-2-oxo-2,3-dihydro-1H-benzo[d]imidazol-4-yl)prop-2-yn-1-yl)oxy)piperidin-1-yl)methyl)cyclohexyl)-1H-pyrazol-4-yl)pyrazolo[1,5-a]pyrimidine-3-carboxamide]
time dependent inhibition (TDI) of CYP2C19 [1]: potential time dependent inhibition (TDI) | Mean Maximum Percent Change from Baseline in ex vivo IFNγ induction [2, 15]: −97%^2 | Mean Maximum Percent Change from Baseline in ex vivo IL1β induction [2, 15]: −92%^1 | Mean Maximum Percent Change from Baseline in ex vivo IL6 induction [2, 15]: −88%^1 | Mean Maximum Percent Change from Baseline in ex vivo IL8 induction [2, 15]: −54%^ | Mean Maximum Percent Change from Baseline in ex vivo IL10 induction [2, 15]: −89%^1 | Mean Maximum Percent Change from Baseline in ex vivo IL12 induction [2, 15]: −93%^1 | Mean Maximum Percent Change from Baseline in ex vivo IL17 induction [2, 15]: −79%^1 | Mean Maximum Percent Change from Baseline in ex vivo TNFα induction [2, 15]: −88%^2 | mean maximum ex vivo cytokine inhibition ([2]; SAD, R848- or LPS-mediated induction, whole blood, 24-48 h post-dose): up to 97% | inhibition of R848 or LPS induction of 8 different pro-inflammatory cytokines ([2]; SAD, whole blood, maxima across cytokines): 79-97% | partitioning into red blood cells [3]: did not significantly partition into red blood cells | plasma protein binding ([3]; across nonclinical species and humans): highly bound | penetration into the central nervous system (CNS) [4]: limited penetration | tissue distribution [4]: extensively distributed into tissues | safety and tolerability [5]: safe and well-tolerated | disease severity in patient HS-10 ([6]; FIG. 36): from moderate to mild | AN count of 0/1/2 response rate ([6]; HS patients, FIG. 30): 42-50% | AN count reduction ([6]; HS patients, FIG. 30): 46-51% | HiSCR50 response rate ([6]; HS patients, FIG. 31): 42-50% | reduction in Pain NRS ([6]; HS patients, FIG. 32): 49-50% | response rate in Pain NRS30 ([6]; HS patients, FIG. 32): 50-60% | reduction in Peak Pruritus NRS ([6]; HS patients, FIG. 33): 62-68% | ΔAN Count ([6]; All Patients (n = 12)): −46% | ΔPain NRS ([6]; All Patients (n = 12)): −49% | ΔPeak Pruritis NRS ([6]; All Patients (n = 12)): −62% | Responders: AN Count 0/1/2 ([6]; All Patients (n = 12)): 42% | Responders: HiSCR50 ([6]; All Patients (n = 12)): 42% | Responders: HiSCR75 ([6]; All Patients (n = 12)): 25% | Responders: Pain NRS30 ([6]; All Patients (n = 12)): 50% | ΔAN Count ([6]; Moderate/Severe (n = 10)): −51% | ΔPain NRS ([6]; Moderate/Severe (n = 10)): −55% | ΔPeak Pruritis NRS ([6]; Moderate/Severe (n = 10)): −68% | Responders: AN Count 0/1/2 ([6]; Moderate/Severe (n = 10)): 50% | Responders: HiSCR50 ([6]; Moderate/Severe (n = 10)): 50% | Responders: HiSCR75 ([6]; Moderate/Severe (n = 10)): 50% | Responders: Pain NRS30 ([6]; Moderate/Severe (n = 10)): 60% | HS-PGA scores ([6]; all HS patients): stable or improved (5 of 12) | lesions and symptoms in patient HS-3 ([6]; moderate disease at baseline, FIG. 35): complete clearing of lesions and symptoms | metabolizing enzyme [7]: primarily metabolized by CYP3A4 | time dependent inhibition (TDI) of CYP3A4 ([7]; in vitro): potential time dependent inhibition (TDI) | DC50 [8]: < 10 nM | exposure in fasted state as share of exposure in fed state ([9]; in vivo): about 133% | exposure in fed state as share of exposure in fasted state ([9]; in vivo): about 75% | half-life ([9]; plasma, oral, Part C, 75 mg QD fed, HS/AD patients): 44 h | solubility [10]: low | solubility ([10]; FaSSIF, pH 6.5, fassif, read-out: solubility in bio-relevant fluid (FaSSIF)): < 12000 µg/mL | solubility ([10]; aqueous media, aqueous buffer, across the physiological pH range, read-out: aqueous solubility): ≤ 3000 µg/mL | BCS classification ([10]; tentative): BCS II | biliary and intestinal excretion as parent drug [11]: minor to moderate | renal clearance [11]: negligible | IC50 values, inhibition of proinflammatory cytokine production (IL-6, TNF-α, GM-CSF, IL-8) [12]: low nM range | substrate of P-glycoprotein (P-gp) [13]: substrate | Kp at 14 day [14]: ~10
